From patent US4886807A, “Novel pyrimidopyrimidine derivative, process for producing it and pharmaceutical composition” (Nippon Zoki Pharmaceutical Co., Ltd., priority 1988, dated 1989)

Experiments:
[1] = tested on: PCA (passive cutaneous anaphylaxis) reaction; assay: Anti-allergic effect: PCA (passive cutaneous anaphylaxis) reaction in rats; format: in vivo, rats (Wister-strain, male); settings: oral, 1 hour before challenge; for Leak of Dye: control 10.7 ± 1.0; for inhibition in vivo at 50 mg/kg / inhibition in vivo at 20 mg/kg / inhibition in vivo at 100 mg/kg: Rattus norvegicus, inhibition of dye leakage
Description: PCA (passive cutaneous anaphylaxis) reaction in rats was taken as an index to an anti-allergic effect of the compound of the present invention.
In order to perform sensitization, anti-DNP-Asc (dinitrophenylated Ascaris extracts) serum diluted with saline was injected intradermally at 4 sites on the shaved back of groups of 10 Wister-strain male rats (6 weeks of age). 1 hour after oral administration of the test drug, the mixture of equivalent amounts of DNP-Asc (5 mg/ml) and 2% Evans blue were intravenously injected to generate PCA reaction. 30 minutes thereafter, rats were killed by decapitation and exsanguinated. The skin was opened in order to evaluate the leakage of blue dye. The obtained skin was dissolved in 2N potassium hydroxide, then 2N phosphoric acid and acetone were added thereto. The amount of dye was determined by measurement of absorbance at 620 nm after centrifugation.

Acute toxicity test = settings: mouse, in vivo, mice, mortality for 7 days after administration, probit method
Description: The test compounds were administered to groups of 10 ddy-strain male mice (weighing about 20 g). LD50 values of the compounds of the invention were calculated by the probit method based on mortality for 7 days after drug administration.

For `Cn1c(=O)c2cnc(-c3ccccc3)nc2n(C)c1=O` [compound 2, 7-phenyl-1,3-dimethylpyrimido[4,5-d]pyrimidine-2,4-dione], the “Leak of Dye” value ([1]; 50 mg/kg) was 8.2 ± 0.9 μg/site and the inhibition in vivo at 50 mg/kg ([1]; 50 mg/kg) was 23.4%.

With `Cc1ncc2c(=O)n(C)c(=O)n(C)c2n1` [compound 3, 1,3,7-trimethylpyrimido[4,5-d]pyrimidine-2,4-dione] the LD50 at 168 h (Acute toxicity test; po) was 690 mg/kg, the “Leak of Dye” value ([1]; 50 mg/kg) was 4.2 ± 0.5 μg/site and the inhibition in vivo at 50 mg/kg ([1]; 50 mg/kg) was 60.7%.

For `Cn1c(=O)c2[nH]cnc2n(C)c1=O` [Theophylline, reference compound], the “Leak of Dye” value ([1]; 20 mg/kg) was 3.5 ± 1.3 μg/site and the inhibition in vivo at 20 mg/kg ([1]; 20 mg/kg) was 67.3%.

With `Cc1nc(N)c2c(=O)n(C)c(=O)n(C)c2n1` [compound 12, 5-amino-1,3,7-trimethylpyrimido[4,5-d]pyrimidine-2,4-dione] the LD50 at 168 h (Acute toxicity test; po) was 707 mg/kg, the “Leak of Dye” value ([1]; 100 mg/kg) was 1.0 ± 0.3 μg/site and the inhibition in vivo at 100 mg/kg ([1]; 100 mg/kg) was 90.7%.

In the case of `Cn1c(=O)c2cncnc2n(C)c1=O` [compound 5, 1,3-dimethylpyrimido[4,5-d]pyrimidine-2,4-dione], the “Leak of Dye” value ([1]; 50 mg/kg) is reported as 4.1 ± 0.8 μg/site and the inhibition in vivo at 50 mg/kg ([1]; 50 mg/kg) is reported as 61.7%.

In the case of `Cn1c(=O)c2cnc(N)nc2n(C)c1=O` [compound 6, 7-amino-1,3-dimethylpyrimido[4,5-d]pyrimidine-2,4-dione], the LD50 at 168 h (Acute toxicity test; ip) is reported as 140 mg/kg, the LD50 at 168 h (Acute toxicity test; po) is reported as 940 mg/kg and the “Leak of Dye” value ([1]; 20 mg/kg) is reported as 5.0 ± 0.9 μg/site. For the same compound, the “Leak of Dye” value ([1]; 50 mg/kg) was 2.3 ± 0.7 μg/site, the “Leak of Dye” value ([1]; 100 mg/kg) was 0.7 ± 0.2 μg/site and the inhibition in vivo at 20 mg/kg ([1]; 20 mg/kg) was 53.3%. For the same compound, the inhibition in vivo at 50 mg/kg ([1]; 50 mg/kg) was 78.5% and the inhibition in vivo at 100 mg/kg ([1]; 100 mg/kg) was 93.5%.

For `Cn1c(=O)c2c(N)nc(N)nc2n(C)c1=O` [compound 14, 5,7-diamino-1,3-dimethylpyrimido[4,5-d]pyrimidine-2,4-dione], the “Leak of Dye” value ([1]; 100 mg/kg) was 1.9 ± 0.5 μg/site and the inhibition in vivo at 100 mg/kg ([1]; 100 mg/kg) was 82.2%.

For `CNc1ncc2c(=O)n(C)c(=O)n(C)c2n1` [compound 8, 7-methylamino-1,3-dimethylpyrimido[4,5-d]pyrimidine-2,4-dione], the “Leak of Dye” value ([1]; 20 mg/kg) was 7.6 ± 1.6 μg/site, the “Leak of Dye” value ([1]; 50 mg/kg) was 2.8 ± 0.7 μg/site and the inhibition in vivo at 20 mg/kg ([1]; 20 mg/kg) was 29%. The inhibition in vivo at 50 mg/kg ([1]; 50 mg/kg) was 73.8%.

With `CCn1c(=O)c2cnc(N)nc2n(CC)c1=O` [compound 17, 7-amino-1,3-diethyl-pyrimido[4,5-d]pyrimidine-2,4-dione] the “Leak of Dye” value ([1]; 100 mg/kg) was 2.4 ± 0.7 μg/site and the inhibition in vivo at 100 mg/kg ([1]; 100 mg/kg) was 77.6%.

With `CNc1ncnc2c1c(=O)n(C)c(=O)n2C` [compound 16, 5-methylamino-1,3-dimethylpyrimido[4,5-d]pyrimidine-2,4-dione] the “Leak of Dye” value ([1]; 100 mg/kg) was 1.7 ± 0.6 μg/site and the inhibition in vivo at 100 mg/kg ([1]; 100 mg/kg) was 84.1%.

With `CC(C)Cn1c(=O)n(C)c(=O)c2cnc(N)nc21` [compound 18, 7-amino-1-iso-butyl 3-methylpyrimido[4,5-d]pyrimidine-2,4-dione] the “Leak of Dye” value ([1]; 100 mg/kg) was 4.0 ± 0.6 μg/site and the inhibition in vivo at 100 mg/kg ([1]; 100 mg/kg) was 62.6%.

With `Cn1c(=O)c2cnc(C(F)(F)F)nc2n(C)c1=O` [compound 4, 7-trifluoromethyl-1,3-dimethylpyrimido[4,5-d]pyrimidine-2,4-dione] the “Leak of Dye” value ([1]; 50 mg/kg) was 6.6 ± 1.1 μg/site and the inhibition in vivo at 50 mg/kg ([1]; 50 mg/kg) was 38.3%.

For `CCn1c(=O)c2c(N)ncnc2n(CC)c1=O` [compound 10, 5-amino-1,3-diethylpyrimido[4,5-d]pyrimidine-2,4-dione], the LD50 at 168 h (Acute toxicity test; po) was 748 mg/kg, the “Leak of Dye” value ([1]; 100 mg/kg) was 1.6 ± 0.4 μg/site and the inhibition in vivo at 100 mg/kg ([1]; 100 mg/kg) was 85%.

With `Cn1c(=O)c2c(N)ncnc2n(C)c1=O` [compound 9, 5-amino-1,3-dimethylpyrimido[4,5-d]pyrimidine-2,4-dione] the “Leak of Dye” value ([1]; 20 mg/kg) was 5.9 ± 1.2 μg/site, the “Leak of Dye” value ([1]; 100 mg/kg) was 0.6 ± 0.1 μg/site and the inhibition in vivo at 20 mg/kg ([1]; 20 mg/kg) was 44.9%. For the same compound, the inhibition in vivo at 100 mg/kg ([1]; 100 mg/kg) was 94.4%.

With `CC(C)Cn1c(=O)n(C)c(=O)c2c(N)ncnc21` [compound 11, 5-amino-1-iso-butyl-3-methylpyrimido[4,5-d]pyrimidine-2,4-dione] the “Leak of Dye” value ([1]; 100 mg/kg) was 2.9 ± 0.8 μg/site and the inhibition in vivo at 100 mg/kg ([1]; 100 mg/kg) was 72.9%.

With `Cn1c(=O)c2cnc(N)nc2n(-c2ccccc2)c1=O` [compound 7, 7-amino-1-phenyl-3-methylpyrimido[4,5-d]pyrimidine-2,4-dione] the “Leak of Dye” value ([1]; 100 mg/kg) was 5.4 ± 0.7 μg/site and the inhibition in vivo at 100 mg/kg ([1]; 100 mg/kg) was 49.5%.
